Patent publication US7417156B2, “Orally active, antimalarial, anticancer, artemisinin-derived trioxane dimers” (Johns Hopkins University, priority 2002, dated 2008)

Tests used:
[1] = system: chloroquine-sensitive P. falciparum (NF54); test: Antimalarial activity in vitro, [3H]hypoxanthine incorporation; assay type: cell-based; details: Table I; NF54 strain; read-out: IC50
60 cell line panel = assay type: cell-based
HL-60(TB) = test: NCI 60 cell line panel screen (SRB); assay type: cell-based, human
A549/ATCC = test: NCI 60 cell line panel screen (SRB); assay type: cell-based, human
EKVX = test: NCI 60 cell line panel screen (SRB); assay type: cell-based, human
NCI-H322M = assay type: cell-based
NCI-H460 = test: NCI 60 cell line panel screen (SRB); assay type: cell-based, human
NCI-H522 = test: NCI 60 cell line panel screen (SRB); assay type: cell-based, human
COLO 205 = test: NCI 60 cell line panel screen (SRB); assay type: cell-based, human
HCT-116 = test: NCI 60 cell line panel screen (SRB); assay type: cell-based, human
HCT-15 = test: NCI 60 cell line panel screen (SRB); assay type: cell-based, human
HT29 = test: NCI 60 cell line panel screen (SRB); assay type: cell-based, human
SF-539 = test: NCI 60 cell line panel screen (SRB); assay type: cell-based, human
SNB-19 = test: NCI 60 cell line panel screen (SRB); assay type: cell-based, human
MALME-3M = test: NCI 60 cell line panel screen (SRB); assay type: cell-based, human
IGROVI = test: NCI 60 cell line panel screen (SRB); assay type: cell-based, human
OVCAR-3 = test: NCI 60 cell line panel screen (SRB); assay type: cell-based, human
786-0 = test: NCI 60 cell line panel screen (SRB); assay type: cell-based, human
TK-10 = test: NCI 60 cell line panel screen (SRB); assay type: cell-based, human
UO-31 = test: NCI 60 cell line panel screen (SRB); assay type: cell-based, human
MCF7 = test: NCI 60 cell line panel screen (SRB); assay type: cell-based, human
NCI/ADR-RES = test: NCI 60 cell line panel screen (SRB); assay type: cell-based, human
T-47D = test: NCI 60 cell line panel screen (SRB); assay type: cell-based, human
[2] = mean value over the 60 cell line panel

Structure (SMILES): C[C@@H]1CC[C@H]2[C@@H](C)C(CC(O)(CC3OC4O[C@]5(C)CC[C@H]6[C@H](C)CC[C@@H]([C@H]3C)C46OO5)c3ccc(C(=O)O)cc3)OC3O[C@]4(C)CCC1C32OO4 (some centres unmarked) [Compound 11b, bis-trioxane tertiary alcohol benzoic acid]
- IC50 [1]: 2.1 nM
- Log10GI50 Delta (60 cell line panel): 0.93
- Log10GI50 Range (60 cell line panel): 3.52
- Log10LC50 Delta (60 cell line panel; 60 cell line panel): 1.58
- Log10LC50 Range (60 cell line panel; 60 cell line panel): 1.65
- Log10TGI50 Delta (60 cell line panel; 60 cell line panel): 3.18
- Log10TGI50 Range (60 cell line panel; 60 cell line panel): 4.00
- growth inhibition in words (60 cell line panel; colon cancer KM12, ovarian cancer OVCAR 3, breast cancer MDA-MB-435): selectively and strong inhibitory
- Log10GI50 MG MID (60 cell line panel; mean over panel): −7.37
- Log10LC50 MG MID (60 cell line panel; [2]): −4.37 log10M
- Log10TGI50 MG MID (60 cell line panel; [2]): −5.12 log10M
- Log10LC50 (HL-60(TB); HL-60(TB) (Leukemia), LC50: PG=−50): −4.55 log10M
- Log10TGI50 (HL-60(TB); HL-60(TB) (Leukemia), TGI: PG=0): −8.11 log10M
- Log10GI50 (HL-60(TB); Leukemia, HL-60(TB)): <−8.30
- Log10LC50 (A549/ATCC; A549/ATCC (Non-Small Cell Lung Cancer), LC50: PG=−50): >−4.30 log10M
- Log10TGI50 (A549/ATCC; A549/ATCC (Non-Small Cell Lung Cancer), TGI: PG=0): >−4.30 log10M
- Log10GI50 (A549/ATCC; Non-Small Cell Lung Cancer, A549/ATCC): −5.69
- Log10LC50 (EKVX; EKVX (Non-Small Cell Lung Cancer), LC50: PG=−50): >−4.30 log10M
- Log10TGI50 (EKVX; EKVX (Non-Small Cell Lung Cancer), TGI: PG=0): >−4.30 log10M
- Log10GI50 (EKVX; Non-Small Cell Lung Cancer, EKVX): −4.79
- Log10GI50 (NCI-H322M): −6.72
- Log10TGI50 (NCI-H322M): >−4.30 log10M
- Log10LC50 (NCI-H322M; NCI-H322M (Non-Small Cell Lung Cancer), LC50: PG=−50): >−4.30 log10M
- Log10LC50 (NCI-H460; NCI-H460 (Non-Small Cell Lung Cancer), LC50: PG=−50): >−4.30 log10M
- Log10TGI50 (NCI-H460; NCI-H460 (Non-Small Cell Lung Cancer), TGI: PG=0): >−4.30 log10M
- Log10GI50 (NCI-H460; Non-Small Cell Lung Cancer, NCI-H460): <−8.30
- Log10TGI50 (NCI-H522; NCI-H522 (Non-Small Cell Lung Cancer), TGI: PG=0): >−4.30 log10M
- Log10LC50 (NCI-H522; NCI-H-522 (Non-Small Cell Lung Cancer), LC50: PG=−50): >−4.30 log10M
- Log10GI50 (NCI-H522; Non-Small Cell Lung Cancer, NCI-H522): −6.54
- Log10LC50 (COLO 205; COLO 205 (Colon Cancer), LC50: PG=−50): −5.28 log10M
- Log10TGI50 (COLO 205; COLO 205 (Colon Cancer), TGI: PG=0): −6.99 log10M
- Log10GI50 (COLO 205; Colon Cancer, COLO 205): <−8.30
- Log10GI50 (HCT-116; Colon Cancer, HCT-116): <−8.30
- Log10LC50 (HCT-116; HCT-116 (Colon Cancer), LC50: PG=−50): >−4.30 log10M
- Log10TGI50 (HCT-116; HCT-116 (Colon Cancer), TGI: PG=0): −4.40 log10M
- Log10GI50 (HCT-15; Colon Cancer, HCT-15): <−8.30
- Log10LC50 (HCT-15; HCT-15 (Colon Cancer), LC50: PG=−50): >−4.30 log10M
- Log10TGI50 (HCT-15; HCT-15 (Colon Cancer), TGI: PG=0): −6.70 log10M
- Log10GI50 (HT29; Colon Cancer, HT29): <−8.30
- Log10LC50 (HT29; HT29 (Colon Cancer), LC50: PG=−50): >−4.30 log10M
- Log10TGI50 (HT29; HT29 (Colon Cancer), TGI: PG=0): >−4.30 log10M
- Log10GI50 (SF-539; CNS Cancer, SF-539): −4.80
- Log10LC50 (SF-539; SF-539 (CNS Cancer), LC50: PG=−50): >−4.30 log10M
- Log10TGI50 (SF-539; SF-539 (CNS Cancer), TGI: PG=0): >−4.30 log10M
- Log10GI50 (SNB-19; CNS Cancer, SNB-19): −6.53
- Log10LC50 (SNB-19; SNB-19 (CNS Cancer), LC50: PG=−50): >−4.30 log10M
- Log10TGI50 (SNB-19; SNB-19 (CNS Cancer), TGI: PG=0): >−4.30 log10M
- Log10LC50 (MALME-3M; MALME-3M (Melanoma), LC50: PG=−50): >−4.30 log10M
- Log10TGI50 (MALME-3M; MALME-3M (Melanoma), TGI: PG=0): −7.46 log10M
- Log10GI50 (MALME-3M; Melanoma, MALME-3M): <−8.30
- Log10LC50 (IGROVI; IGROVI (Ovarian Cancer), LC50: PG=−50): >−4.30 log10M
- Log10TGI50 (IGROVI; IGROVI (Ovarian Cancer), TGI: PG=0): −4.50 log10M
- Log10GI50 (IGROVI; Ovarian Cancer, IGROVI): −5.98
- Log10LC50 (OVCAR-3; OVCAR-3 (Ovarian Cancer), LC50: PG=−50): >−4.30 log10M
- Log10TGI50 (OVCAR-3; OVCAR-3 (Ovarian Cancer), TGI: PG=0): −8.07 log10M
- Log10GI50 (OVCAR-3; Ovarian Cancer, OVCAR-3): <−8.30
- Log10LC50 (786-0; 786-0 (Renal Cancer), LC50: PG=−50): >−4.30 log10M
- Log10TGI50 (786-0; 786-0 (Renal Cancer), TGI: PG=0): >−4.30 log10M
- Log10GI50 (786-0; Renal Cancer, 786-0): −7.17
- Log10GI50 (TK-10; Renal Cancer, TK-10): −7.81
- Log10LC50 (TK-10; TK-10 (Renal Cancer), LC50: PG=−50): >−4.30 log10M
- Log10TGI50 (TK-10; TK-10 (Renal Cancer), TGI: PG=0): −5.86 log10M
- Log10GI50 (UO-31; Renal Cancer, UO-31): −6.78
- Log10LC50 (UO-31; UO-31 (Renal Cancer), LC50: PG=−50): >−4.30 log10M
- Log10TGI50 (UO-31; UO-31 (Renal Cancer), TGI: PG=0): >−4.30 log10M
- Log10GI50 (MCF7; Breast Cancer, MCF7): <−8.30
- Log10LC50 (MCF7; MCF7 (Breast Cancer), LC50: PG=−50): >−4.30 log10M
- Log10TGI50 (MCF7; MCF7 (Breast Cancer), TGI: PG=0): >−4.30 log10M
- Log10GI50 (NCI/ADR-RES; Breast Cancer, NCI/ADR-RES): −6.84
- Log10LC50 (NCI/ADR-RES; NCI/ADR-RES (Breast Cancer), LC50: PG=−50): >−4.30 log10M
- Log10TGI50 (NCI/ADR-RES; NCI/ADR-RES (Breast Cancer), TGI: PG=0): >−4.30 log10M
- Log10GI50 (T-47D; Breast Cancer, T-47D): <−8.30
- Log10LC50 (T-47D; T-47D (Breast Cancer), LC50: PG=−50): >−4.30 log10M
- Log10TGI50 (T-47D; T-47D (Breast Cancer), TGI: PG=0): >−4.30 log10M
